Patent publication US4730005A, “Leukotriene antagonist” (SmithKline Beckman Corporation, priority 1986, dated 1988)

Tests used:
[1] = test system: LTD4 induced bronchoconstriction in guinea pigs; experiment: in vivo inhibition of LTD4 induced bronchoconstriction (airway resistance RL) in guinea pigs; parameters: species or system guinea pig (adult male albino Hartley strain); conditions: intravenous
Experimental: (§1) The leukotriene antagonist activity of the compounds of this invention is measured by the ability of the compounds to inhibit the leukotriene induced contraction of guinea pig tracheal tissues in vitro and to inhibit leukotriene induced bronchoconstriction in guinea pigs in vivo. The following methodologies were employed: In vitro: Guinea pig (adult male albino Hartley strain) tracheal spiral strips of approximate dimensions 2 to 3 mm cross-sectional width and 3.5 cm length were bathed in modified Krebs buffer in jacketed 10 ml tissue bath and continously aerated with 95% 02 /5% CO2. The tissues were connected via silk suture to force displacement transducers for recording isometric tension. The tissues were equilibrated for 1 hr., pretreated for 15 minutes with meclofenamic acid (1 μM) to remove intrinsic prostaglandin responses, and then pretreated for an additional 30 minutes with either the test compound or vehicle control. A cumulative concentration-response curve for LTD4 on triplicate tissues was generated by successive increases in the bath concentration of the LTD4. In order to minimize intertissue variability, the contractions elicited by LTD4 were standardized as a percentage of the maximum response obtained to a reference agonist, carbachol (10 μM).
Calculations: The averages of the triplicate LTD4 concentration-response curves both in the presence and absence of the test compound were plotted on log graph paper. The concentration of LTD4 needed to elicit 30% of the contraction elicited by carbachol was measured and defined as the EC30. The -log KB value for the test compound was determined by the following equations: [formula] In vivo: Anesthetized, spontaneously breathing guinea pigs (Adult male albino Hartley strain) were monitored on a Buxco pulmonary mechanics computer. Changes in airway resistance (RL) were calculated by the computer on a breath-by-breath basis at isovolumic points from signals measuring airflow and transpulmonary pressure using differential pressure transducers. Animals received either test compound or vehicle control intravenously via the jugular vein. LTD4 was then injected into the jugular vein. The bronchoconstriction produced was reflected by % changes in airways resistance relative to the baseline values obtained prior to injection of the test compound or vehicle control. Each guinea pig received either vehicle control or test compound.
Calculations: The average of 3-6 animals per treatment was calculated using the % changes in the pulmonary parameters for control and test compound-treated animals. The average % inhibition by the test compound was calculated from the following equation: [formula]

[2] = molecular target: T1, leukotriene D4 (LTD4) induced contraction of guinea pig tracheal tissues (Cavia porcellus, UniProt Q2NNR5); experiment: in vitro inhibition of LTD4 induced contraction of guinea pig tracheal spiral strips; assay type: cell-based, guinea pig (adult male albino Hartley strain); conditions: guinea pig trachea, LTD4 agonist, 30 min pretreatment with test compound
T1 construct: Guinea pig (adult male albino Hartley strain) tracheal spiral strips; from tissue; host or cells: guinea pig trachea (spiral strips, adult male albino Hartley strain)
T1 sequence (Q2NNR5 1-340): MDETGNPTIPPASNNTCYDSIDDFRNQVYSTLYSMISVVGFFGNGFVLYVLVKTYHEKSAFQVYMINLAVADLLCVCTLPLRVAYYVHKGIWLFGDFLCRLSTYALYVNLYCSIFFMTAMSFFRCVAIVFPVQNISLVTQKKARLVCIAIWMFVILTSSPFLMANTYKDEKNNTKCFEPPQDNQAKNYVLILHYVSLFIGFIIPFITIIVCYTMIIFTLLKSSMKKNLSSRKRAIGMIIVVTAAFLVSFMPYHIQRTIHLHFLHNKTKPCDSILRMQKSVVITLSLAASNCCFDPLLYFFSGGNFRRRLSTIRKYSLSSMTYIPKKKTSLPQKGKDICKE
Experimental: as §1, with “μM). Calculations: The averages of the triplicate LTD4 concentration-response curves both in the presence and absence of the test compound were plotted on log graph paper. The concentration of LTD4 needed to elicit 30% of the contraction elicited by carbachol was measured and defined as the EC30. The -log KB value for the test compound was determined by the following equations: [formula] In vivo: Anesthetized, spontaneously breathing guinea pigs (Adult male albino Hartley strain) were monitored on a Buxco pulmonary mechanics computer. Changes in airway resistance (RL) were calculated by the computer on a breath-by-breath basis at isovolumic points from signals measuring airflow and transpulmonary pressure using differential pressure transducers. Animals received either test compound or vehicle control intravenously via the jugular vein. LTD4 was then injected into the jugular vein. The bronchoconstriction produced was reflected by % changes in airways resistance relative to the baseline values obtained prior to injection of the test compound or vehicle control. Each guinea pig received either vehicle control or test compound.” for “μM).”

[3] = test system: arachidonic acid-induced inflammation in mice; experiment: arachidonic acid-induced inflammation in mice; assay type: in vivo
[4] = test system: carrageenan peritonitis in mice; experiment: carrageenan peritonitis in mice; assay type: in vivo; conditions: oral administration at 100 mg/kg

**Q.** With `O=C(O)CCSC(SCCC(=O)O)c1ccccc1CCCCCCCCCCCC(F)(F)F` [2 2 C11 H22 CF3 H, 4,6-Dithia-5-[2-(12,12,12-trifluorododecyl)phenyl]nonanedioic acid] as the compound, how does the “% Inhibition of RL” value ([1]; 5 mg/kg) read?
**A.** The value was 30.4%.

**Q.** And the Kb [2]?
**A.** The Kb was 631 nM.

**Q.** `O=C(O)CCSC(SCCC(=O)O)c1ccccc1CCCCCCCCc1ccccc1` [2 2 C8 H16 phenyl H, 4,6-Dithia-5-[2-(8-phenyloctyl)phenyl]nonanedioic acid] was tested. Which ED50 ([3]; Mus musculus, oral) did it give?
**A.** Its ED50 is 105 mg/kg.

**Q.** What about the anti-inflammatory activity ([3]; oral administration) of the same compound?
**A.** The anti-inflammatory activity was “demonstrated anti-inflammatory activity”.

**Q.** And the anti-inflammatory activity ([3]; subcutaneous administration)?
**A.** Its anti-inflammatory activity is “demonstrated anti-inflammatory activity”.

**Q.** What about the anti-inflammatory activity ([3]; topical administration) of the same compound?
**A.** Its anti-inflammatory activity is “demonstrated anti-inflammatory activity”.

**Q.** What about the “activity against carrageenan peritonitis” value [4] of the same compound?
**A.** Its value is “demonstrated activity”.

**Q.** And the “% Inhibition of RL” value ([1]; (1) 5 mg/kg)?
**A.** The value was 100%.

**Q.** And the “% Inhibition of RL” value ([1]; (2) 5 mg/kg)?
**A.** The value was 95.3%.

**Q.** And the Kb [2]?
**A.** Its Kb is 316 nM.

**Q.** `CCCCCCCCCCc1ccccc1C(SCCC(=O)O)SCCC(=O)O` [2 2 C10 H21 H, 4,6-dithia-5-(2-decylphenyl)nonanedioic acid] was tested. Which “% Inhibition of RL” value ([1]; 5 mg/kg) did it give?
**A.** The value was 60.7%.

**Q.** What about the Kb [2] of the same compound?
**A.** Its Kb is 316 nM.

**Q.** Which “% Inhibition of RL” value ([1]; 10 mg/kg) does the source give for `O=C(O)CCSC(SCCC(=O)O)c1ccccc1OCCCCCCc1ccccc1` [2 2 OC6 H12 phenyl H, 4,6-Dithia-5-[2-(6-phenylhexyloxy)phenyl]nonanedioic acid] here?
**A.** The value was 26.4%.

**Q.** What about the Kb [2] of the same compound?
**A.** The Kb was 5010 nM.

**Q.** `CCCCCCCCCCCOc1ccccc1C(SCCC(=O)O)SCCC(=O)O` [2 2 OC11 H23 H, 4,6-Dithia-5-(2-undecyloxyphenyl)nonanedioic acid] was tested. Which “% Inhibition of RL” value ([1]; 10 mg/kg) did it give?
**A.** The value was 89.4%.

**Q.** And the Kb [2]?
**A.** Its Kb is 398 nM.

**Q.** Which “% Inhibition of RL” value ([1]; 5 mg/kg) does the source give for `CCCCCCCCCCCCc1ccccc1C(SCCC(=O)O)SCCC(=O)O` [2 2 C12 H25 H, 4,6-Dithia-5-(2-dodecylphenyl)nonanedioic acid] here?
**A.** The value was 96.5%.

**Q.** What about the Kb [2] of the same compound?
**A.** Its Kb is 631 nM.
